Read-outs that look alike come from different tables or passages of the source.
How the values were obtained:
His6-TEV-PPARγ-(234-505) = target: T1, His6-TEV-PPARγ-(234-505) (Homo sapiens, UniProt P37231); assay: TR-FRET Assay to Measure Co-R Peptide Recruitment to PPARγ; format: biochemical; settings: Co-R peptide (SMRT-ID2) recruitment, top final concentration 20 μM, read-out: TR-FRET i-Ag, AC50
T1 construct: The His6-TEV-PPARγ-(234-505) protein for assay was expressed and purified; TEV cleavage site (N); made in house
T1 sequence (P37231 234-505): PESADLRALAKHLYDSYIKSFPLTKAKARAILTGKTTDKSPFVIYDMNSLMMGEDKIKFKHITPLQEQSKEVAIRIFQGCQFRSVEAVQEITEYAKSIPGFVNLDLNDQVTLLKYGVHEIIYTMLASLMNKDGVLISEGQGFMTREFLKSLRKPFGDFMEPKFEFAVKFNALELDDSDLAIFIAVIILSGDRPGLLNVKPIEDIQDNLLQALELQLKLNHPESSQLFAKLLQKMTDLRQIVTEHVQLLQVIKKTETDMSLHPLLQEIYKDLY
Procedure, shortened: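 His-tagged PPARγ (or controls) was preincubated with compound for 20 minutes at room temperature, then 5 nM anti-His terbium antibody and 200 nM FITC-labeled SMRT-ID2 corepressor peptide (final) were added for a further hour. TR-FRET signal was normalized to percent response using 500 nM T0070907 and DMSO controls.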

UM-UC-9 engineered cells = assay: Cell proliferation / short-term viability assay, CellTiter-Glo 144 h; format: cell-based, human; settings: read-out: CTGlo 144 h UMUC9.5, G150
Procedure, shortened: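 UM-UC-9 engineered assay-ready cells seeded at 500 cells/well in high-glucose DMEM/10% FBS, treated from dose-response plates, grown at 37° C, 5% CO2. CellTiter-Glo 2.0 luminescence read on day 7, with a day-0 pretreatment plate as T0 reference and DMSO wells as negative control.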

Compound	AC50 (His6-TEV-PPARγ-(234-505)) [µM]	IC50 (UM-UC-9 engineered cells) [µM]	IC50 (UM-UC-9 engineered cells; Homo sapiens, UM-UC-9, 144 h) [µM]	AC50 (His6-TEV-PPARγ-(234-505); listed as 118a) [µM]	IC50 (UM-UC-9 engineered cells; listed as 118a) [µM]
COc1cc(-c2cc(C(=O)N3CCC(C(=O)NC4CCN(c5cccnc5)C4)CC34CC4)n[nH]2)c(F)cn1 (mixture of isomers) [Example 390, (S)-4-(5-(5-fluoro-2-methoxypyridin-4-yl)-1H-pyrazole-3-carbonyl)-N—((R)-1-(pyridin-3-yl)pyrrolidin-3-yl)-4-azaspiro[2.5]octane-7-carboxamide and (S)-4-(5-(5-fluoro-2-methoxypyridin-4-yl)-1H-pyrazole-3-carbonyl)-N—((S)-1-(pyridin-3-yl)pyrrolidin-3-yl)-4-azaspiro[2.5]octane-7-carboxamide]	0.0042	0.0071			
COc1cc(-c2cc(C(=O)N3CCC(C(=O)NC4CN(c5cnc(C)cn5)CC4(F)F)CC34CC4)n[nH]2)c(F)cn1 (mixture of isomers) [Example 490, (S)—N—((S)-4,4-difluoro-1-(5-methylpyrazin-2-yl)pyrrolidin-3-yl)-4-(5-(5-fluoro-2-methoxypyridin-4-yl)-1H-pyrazole-3-carbonyl)-4-azaspiro[2.5]octane-7-carboxamide and (S)—N—((R)-4,4-difluoro-1-(5-methylpyrazin-2-yl)pyrrolidin-3-yl)-4-(5-(5-fluoro-2-methoxypyridin-4-yl)-1H-pyrazole-3-carbonyl)-4-azaspiro[2.5]octane-7-carboxamide]	0.0019	0.0173			
(S)-4-(5-(5-fluoro-2-methoxypyridin-4-yl)-1H-pyrazole-3-carbonyl)-N-((1r,4S)-4-hydroxy-4-(perfluoroethyl)cyclohexyl)-4-azaspiro[2.5]octane-7-carboxamide and (S)-4-(5-(5-fluoro-2-methoxypyridin-4-yl)-1H-pyrazole-3-carbonyl)-N-((1s,4R)-4-hydroxy-4-(perfluoroethyl)cyclohexyl)-4-azaspiro[2.5]octane-7-carboxamide [Example 373]	0.0117	0.003			
COc1cc(-c2cc(C(=O)N3CCC(C(=O)NCc4nccc5[nH]ccc45)CC3)n[nH]2)c(Cl)cn1 [Example 254, N-((1H-pyrrolo[3,2-c]pyridin-4-yl)methyl)-1-(5-(5-chloro-2-methoxypyridin-4-yl)-1H-pyrazole-3-carbonyl)piperidine-4-carboxamide]	0.0588		> 2		
CCc1cc(-c2cc(C(=O)N3CCC(C(=O)NCc4cccc(Cl)c4)CC3)n[nH]2)c(Cl)cn1 [Example 270, 1-[5-(5-chloro-2-ethylpyridin-4-yl)-1H-pyrazole-3-carbonyl]-N-[(3-chlorophenyl)methyl]piperidine-4-carboxamide]	0.0234		0.306		
COc1cc(-c2cc(C(=O)N3CCC(C(=O)NC4CCC(C(F)(F)F)CC4)CC3)n[nH]2)c(Cl)cn1 (single isomer, unassigned) [Example 118-A]				0.0155	0.116
COc1cc(-c2cc(C(=O)N3CCC(C(=O)NCc4ncc(N5CCNC6CC65)cn4)CC34CC4)n[nH]2)c(F)cn1 (mixture of isomers) [Example 469, (S)—N-((5-((1S,6R)-2,5-diazabicyclo[4.1.0]heptan-2-yl)pyrimidin-2-yl)methyl)-4-(3-(5-fluoro-2-methoxypyridin-4-yl)-1H-pyrazole-5-carbonyl)-4-azaspiro[2.5]octane-7-carboxamide and (S)—N-((5-((1R,6S)-2,5-diazabicyclo[4.1.0]heptan-2-yl)pyrimidin-2-yl)methyl)-4-(3-(5-fluoro-2-methoxypyridin-4-yl)-1H-pyrazole-5-carbonyl)-4-azaspiro[2.5]octane-7-carboxamide]	0.0785	9.02			
N#Cc1cc(-c2cc(C(=O)N3CCC(C(=O)NC4CCC(O)(C(F)(F)F)CC4)CC34CC4)n[nH]2)ncn1 (single isomer, unassigned) [Example 528-A]	2.09	> 10			

More lines, main results first:

AC50 (His6-TEV-PPARγ-(234-505)) [µM]	Compound	IC50 (UM-UC-9 engineered cells) [µM]	IC50 (UM-UC-9 engineered cells; Homo sapiens, UM-UC-9, 144 h) [µM]	AC50 (His6-TEV-PPARγ-(234-505); listed as 118a) [µM]	IC50 (UM-UC-9 engineered cells; listed as 118a) [µM]
0.0854	COc1cc(-c2cc(C(=O)N3CCC(C(=O)NCc4ncccc4Cl)CC3)n[nH]2)c(Cl)cn1 [Example 140, 1-(5-(5-chloro-2-methoxypyridin-4-yl)-1H-pyrazole-3-carbonyl)-N-((3-chloropyridin-2-yl)methyl)piperidine-4-carboxamide]		0.634		
0.269	COc1cc(-c2cc(C(=O)N3CCC(C(=O)NC4CC(C)CC(C)(C)C4)CC3)n[nH]2)c(Cl)cn1 (mixture of isomers) [Example 150, 1-(5-(5-chloro-2-methoxypyridin-4-yl)-1H-pyrazole-3-carbonyl)-N-(3,3,5-trimethylcyclohexyl)piperidine-4-carboxamide]		0.779		
0.112	COc1cc(-c2cc(C(=O)N3CCC(C(=O)NCc4ccc5[nH]nc(F)c5c4)CC3)n[nH]2)c(F)cn1 [Example 200, N-((3-fluoro-1H-indazol-5-yl)methyl)-1-(5-(5-fluoro-2-methoxypyridin-4-yl)-1H-pyrazole-3-carbonyl)piperidine-4-carboxamide]		0.0715		
0.283	COc1cc(-c2cc(C(=O)N3CC[C@H](C(=O)NC(C)c4cn5c(n4)COCC5)CC34CC4)n[nH]2)c(F)cn1 (single isomer, unassigned) [Example 415-B]	0.867			
0.327	COc1cc(-c2cc(C(=O)N3CC[C@H](C(=O)NCc4ncc(N5CC6CC5CN6)cn4)CC34CC4)n[nH]2)c(F)cn1 (single isomer, unassigned) [Example 467-A]	> 10			
0.996	COc1cc(-c2cc(C(=O)N3CC[C@H](C(=O)NC45CC(CO)(C4)OC5C)CC34CC4)n[nH]2)c(F)cn1 (single isomer, unassigned) [Example 518-B]	> 10			
1.96	COc1cc(-c2cc(C(=O)N3CCC(C(=O)NCC45CCC(O)(CC4)C5)CC34CC4)n[nH]2)c(F)cn1 (single isomer, unassigned) [Example 333-A]	9.44			
0.0069	COc1cc(-c2cc(C(=O)N3CC[C@H](C(=O)NCc4conc4C(F)(F)F)CC34CC4)[nH]n2)c(F)cn1 [Example 505, (S)-4-(3-(5-fluoro-2-methoxypyridin-4-yl)-1H-pyrazole-5-carbonyl)-N-((3-(trifluoromethyl)isoxazol-4-yl)methyl)-4-azaspiro[2.5]octane-7-carboxamide]		0.0103		
0.388	COc1cc(-c2cc(C(=O)N3CC[C@H](C(=O)NC4CCN(C5COC56CNC6)C4)CC34CC4)n[nH]2)c(F)cn1 (single isomer, unassigned) [Example 461-D]	> 10			
0.309	COc1cc(-c2cc(C(=O)N3CCC(C(=O)NCc4cn5cc(C)ccc5n4)CC3)n[nH]2)c(Cl)cn1 [Example 217, 1-(5-(5-chloro-2-methoxypyridin-4-yl)-1H-pyrazole-3-carbonyl)-N-((6-methylimidazo[1,2-a]pyridin-2-yl)methyl)piperidine-4-carboxamide]		3.63		
0.0798	COc1cc(-c2cc(C(=O)N3CCC(C(=O)NCc4ccc5cc[nH]c5c4)CC3)n[nH]2)c(Cl)cn1 [Example 188, N-((1H-indol-6-yl)methyl)-1-(5-(5-chloro-2-methoxypyridin-4-yl)-1H-pyrazole-3-carbonyl)piperidine-4-carboxamide]		0.211		
0.0065	COc1cc(-c2cc(C(=O)N3CCC(C(=O)NC4CCC(OCC(C)OC)(C(F)(F)F)CC4)CC34CC4)n[nH]2)c(F)cn1 (single isomer, unassigned) [Example 340-A]	0.0044			

— patent US12606541B2, “PPARg modulators and methods of use” (Eisai R&D Management Co., Ltd., priority 2020, dated 2026)
